# According to paper PMC6934184, “Selective DNA-PKcs inhibition extends the therapeutic index of localized radiotherapy and chemotherapy” (The Journal of Clinical Investigation, 2019):
# Target: T1, PAK7 (KIAA1264) (Homo sapiens, UniProt Q9P286)
# T1 construct: purchased Thermo Fisher Scientific (Life Technologies) SelectScreen
# Assay: SelectScreen Z'LYTE
# Assay type: biochemical
# Method in brief: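 Percent values come from Thermo SelectScreen profiling of NU5455, combining activity and binding assays. CSF1R was run in Z'LYTE format at Km app ATP, and CAMK1 in Adapta format with ATP listed at 10.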
# T1 sequence (Q9P286 whole entry): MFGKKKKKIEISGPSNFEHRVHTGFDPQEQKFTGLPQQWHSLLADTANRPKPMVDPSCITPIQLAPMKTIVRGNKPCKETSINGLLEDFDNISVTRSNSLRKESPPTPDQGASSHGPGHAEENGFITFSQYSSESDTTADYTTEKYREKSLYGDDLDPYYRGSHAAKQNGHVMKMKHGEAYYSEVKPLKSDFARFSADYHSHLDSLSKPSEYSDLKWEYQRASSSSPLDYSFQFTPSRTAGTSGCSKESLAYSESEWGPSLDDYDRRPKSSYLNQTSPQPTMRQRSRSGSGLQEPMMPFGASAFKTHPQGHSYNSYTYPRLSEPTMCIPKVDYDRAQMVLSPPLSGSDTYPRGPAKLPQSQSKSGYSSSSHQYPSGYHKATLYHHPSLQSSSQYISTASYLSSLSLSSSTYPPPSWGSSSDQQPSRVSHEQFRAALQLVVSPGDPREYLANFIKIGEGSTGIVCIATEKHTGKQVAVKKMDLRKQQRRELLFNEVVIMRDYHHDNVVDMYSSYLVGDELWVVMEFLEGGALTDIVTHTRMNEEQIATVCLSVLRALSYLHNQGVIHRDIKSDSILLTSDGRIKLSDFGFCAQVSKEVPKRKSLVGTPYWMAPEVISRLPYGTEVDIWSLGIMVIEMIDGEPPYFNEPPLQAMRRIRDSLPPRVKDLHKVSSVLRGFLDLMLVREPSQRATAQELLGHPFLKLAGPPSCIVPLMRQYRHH
smiles,measurement,value
CN(C(=O)CN1CCOCC1)c1ccc2sc3c(-c4cccc5c(=O)cc(N6CC7CCC(C6)O7)oc45)cccc3c2c1 [NU5455],inhibition at 1 µM,5.7%
